System: TFEB
Test: TFEB nuclear translocation assay, HeLa wt cells
Assay type: cell-based
Settings: Homo sapiens, HeLa, 2 h, 2 hrs compound treatment, Table 1 does not say HeLa wt or TRPML1 KO
Outline: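 TFEB translocation into the nucleus of HeLa wt cells is scored by high-content immunofluorescence after 2 hrs of compound treatment at 37° C, reported as AC50.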

**Q.** Cc1ccc(S(=N)(=O)Nc2ccccc2N2CCC(c3ccc(Cl)cc3F)CC2)cc1 (stereo not shown) [Compound A-151, N-{2-[4-(4-chloro-2-fluorophenyl)piperidin-1-yl]phenyl}-4-methylbenzene-1-sulfonoimidamide] was tested. Which AC50 did it give?
**A.** The AC50 was 2.01 to 8 µM.

**Q.** For CS(=N)(=O)c1ccc(S(=O)(=O)Nc2ccccc2N2CCC(O)(c3ccc(Cl)cc3F)CC2)cc1 (stereo not shown) [Compound A-152, N-{2-[4-(4-chloro-2-fluorophenyl)-4-hydroxypiperidin-1-yl]phenyl}-4-[iimino(methyl)oxo-λ^6-sulfanyl]benzene-1-sulfonamide], which AC50 is on record?
**A.** The AC50 was no less than 10 µM.

**Q.** For CC(=O)NC1(c2ccc(Cl)cc2F)CCN(c2ccccc2NS(=O)(=O)c2ccc(S(=O)(=O)N(C)C)cc2)CC1 [Compound A-153, N-[4-(4-chloro-2-fluorophenyl)-1-{2-[4-(dimethylsulfamoyl)benzenesulfonamido]phenyl}piperidin-4-yl]acetamide], which AC50 is on record?
**A.** The AC50 was 2.01 to 8 µM.

**Q.** For CS(=O)(=O)c1ccc(S(=O)(=O)Nc2cc(F)ccc2N2CCC(c3c(F)cccc3F)CC2)cc1 [Compound A-154, N-{2-[4-(2,6-difluorophenyl)piperidin-1-yl]-5-fluorophenyl}-4-methanesulfonylbenzene-1-sulfonamide], which AC50 is on record?
**A.** The AC50 was no more than 2 µM.

**Q.** Which AC50 does the source give for CS(=O)(=O)c1ccc(S(=O)(=O)Nc2ccc(F)cc2N2CCC(c3c(F)cccc3F)CC2)cc1 [Compound A-155, N-{2-[4-(2,6-difluorophenyl)piperidin-1-yl]-4-fluorophenyl}-4-methanesulfonylbenzene-1-sulfonamide] here?
**A.** Its AC50 is 2.01 to 8 µM.

**Q.** With CN(C)S(=O)(=O)c1ccc(S(=O)(=O)c2ccccc2N2CCC(c3ccc(Cl)cc3F)CC2)cc1 [Compound A-156, 4-((2-(4-(4-chloro-2-fluorophenyl)piperidin-1-yl)phenyl)sulfonyl)-N,N-dimethylbenzenesulfonamide] as the compound, how does the AC50 read?
**A.** Its AC50 is 2.01 to 8 µM.

**Q.** O=S(=O)(Nc1ccccc1N1CCC(c2ccc(Cl)cc2F)CC1)c1ccc(C(O)C(F)(F)F)cc1 (stereo not shown) [Compound A-157, N-{2-[4-(4-chloro-2-fluorophenyl)piperidin-1-yl]phenyl}-4-(2,2,2-trifluoro-1-hydroxyethyl)benzene-1-sulfonamide] was tested. Which AC50 did it give?
**A.** The AC50 was no more than 2 µM.

**Q.** O=S(=O)(Nc1ccccc1N1CCC(c2ccc(Cl)cc2F)CC1)c1ccc(C(F)(F)F)c(F)c1 [Compound A-158, N-{2-[4-(4-chloro-2-fluorophenyl)piperidin-1-yl]phenyl}-3-fluoro-4-(trifluoromethyl)benzene-1-sulfonamide] was tested. Which AC50 did it give?
**A.** The AC50 was no more than 2 µM.

**Q.** O=S(=O)(Nc1ccccc1N1CCC(c2ccc(Cl)cc2F)CC1)c1ccc(C(F)(F)F)cc1F [Compound A-159, N-{2-[4-(4-chloro-2-fluorophenyl)piperidin-1-yl]phenyl}-2-fluoro-4-(trifluoromethyl)benzene-1-sulfonamide] was tested. Which AC50 did it give?
**A.** The AC50 was 2.01 to 8 µM.

**Q.** For C[S+]([O-])c1ccc(S(=O)(=O)Nc2ccccc2N2CCC(c3ccc(F)cc3F)CC2)cc1 (stereo not shown) [Compound A-160, N-{2-[4-(2,4-difluorophenyl)piperidin-1-yl]phenyl}-4-methanesulfinylbenzene-1-sulfonamide], which AC50 is on record?
**A.** The AC50 was 2.01 to 8 µM.

**Q.** For CN(C)S(=O)(=O)c1ccc(S(=O)(=O)Nc2ccccc2N2CCC(CO)(c3ccc(F)cc3F)CC2)cc1 [Compound A-161, N4-{2-[4-(2,4-difluorophenyl)-4-(hydroxymethyl)piperidin-1-yl]phenyl}-N1,N1-dimethylbenzene-1,4-disulfonamide], which AC50 is on record?
**A.** Its AC50 is 2.01 to 8 µM.

**Q.** CN(C)S(=O)(=O)c1ccc(S(=O)(=O)Nc2ccccc2N2CC(O)(c3ccc(Cl)cc3F)C2)cc1 [Compound A-162, N4-{2-[3-(4-chloro-2-fluorophenyl)-3-hydroxyazetidin-1-yl]phenyl}-N1,N1-dimethylbenzene-1,4-disulfonamide] was tested. Which AC50 did it give?
**A.** Its AC50 is 2.01 to 8 µM.

**Q.** With CN(C)S(=O)(=O)c1ccc(S(=O)(=O)Nc2ccccc2N2CCC(C(N)=O)(c3ccc(F)cc3F)CC2)cc1 [Compound A-163, 4-(2,4-difluorophenyl)-1-{2-[4-(dimethylsulfamoyl)benzenesulfonamido]phenyl}piperidine-4-carboxamide] as the compound, how does the AC50 read?
**A.** The AC50 was no less than 10 µM.

**Q.** For CP(C)(=O)c1ccc(S(=O)(=O)Nc2ccccc2N2CCN(c3ccc(F)cc3F)CC2)cc1 [Compound A-165, N-{2-[4-(2,4-difluorophenyl)piperazin-1-yl]phenyl}-4-(dimethylphosphoryl)benzene-1-sulfonamide], which AC50 is on record?
**A.** Its AC50 is 2.01 to 8 µM.

**Q.** With CS(=N)(=O)c1ccc(S(=O)(=O)Nc2ccccc2N2CCC(c3c(F)cccc3F)CC2)cc1 (stereo not shown) [Compound A-166, N-{2-[4-(2,6-difluorophenyl)piperidin-1-yl]phenyl}-4-[imino(methyl)oxo-λ^6-sulfanyl]benzene-1-sulfonamide] as the compound, how does the AC50 read?
**A.** The AC50 was 2.01 to 8 µM.

**Q.** For COc1ccc(S(=O)(=O)Nc2ccccc2-c2ccc(F)cc2F)cc1 [Compound A-167, N-(2′,4′-difluoro-[1,1′-biphenyl]-2-yl)-4-methoxybenzenesulfonamide], which AC50 is on record?
**A.** Its AC50 is 2.01 to 8 µM.

**Q.** With CN(C)S(=O)(=O)c1ccc(C(Nc2ccccc2N2CCC(c3ccc(Cl)cc3F)CC2)C(F)(F)F)cc1 (stereo not shown) [Compound A-170, 4-[1-({2-[4-(4-chloro-2-fluorophenyl)piperidin-1-yl]phenyl}amino)-2,2,2-trifluoroethyl]-N,N-dimethylbenzene-1-sulfonamide] as the compound, how does the AC50 read?
**A.** Its AC50 is no more than 2 µM.

**Q.** With CN(C)S(=O)(=O)c1ccc(S(=O)(=O)N2CC(c3ccc(Cl)cc3F)Nc3ccccc32)cc1 (stereo not shown) [Compound A-171, 4-{[3-(4-chloro-2-fluorophenyl)-1,2,3,4-tetrahydroquinoxalin-1-yl]sulfonyl}-N,N-dimethylbenzene-1-sulfonamide] as the compound, how does the AC50 read?
**A.** The AC50 was 2.01 to 8 µM.

**Q.** With CC(=O)N(C)C1(c2ccc(Cl)cc2F)CCN(c2ccccc2NS(=O)(=O)c2ccc(S(=O)(=O)N(C)C)cc2)CC1 [Compound A-172, N-[4-(4-chloro-2-fluorophenyl)-1-{2-[4-(dimethylsulfamoyl)benzenesulfonamido]phenyl}piperidin-4-yl]-N-methylacetamide] as the compound, how does the AC50 read?
**A.** Its AC50 is 2.01 to 8 µM.

**Q.** Which AC50 does the source give for O=S(=O)(Nc1ccccc1N1CCC(c2ccc(F)cc2F)CC1)c1ccc(S(=O)(=O)C(F)(F)F)cc1 [Compound A-173, N-{2-[4-(2,4-difluorophenyl)piperidin-1-yl]phenyl}-4-trifluoromethanesulfonylbenzene-1-sulfonamide] here?
**A.** Its AC50 is no more than 2 µM.

**Q.** For O=S(=O)(Nc1ccccc1N1CCN(c2ccc(F)cc2F)CC1)c1ccc(S(=O)(=O)C(F)(F)F)cc1 [Compound A-174, N-{2-[4-(2,4-difluorophenyl)piperazin-1-yl]phenyl}-4-trifluoromethanesulfonylbenzene-1-sulfonamide], which AC50 is on record?
**A.** Its AC50 is 2.01 to 8 µM.

**Q.** CN(C)S(=O)(=O)c1ccc(S(=O)(=O)Nc2ccccc2N2CCC(C#N)(c3ccc(F)cc3F)CC2)cc1 [Compound A-175, N4-{2-[4-cyano-4-(2,4-difluorophenyl)piperidin-1-yl]phenyl}-N1,N1-dimethylbenzene-1,4-disulfonamide] was tested. Which AC50 did it give?
**A.** Its AC50 is no more than 2 µM.

**Q.** Which AC50 does the source give for CP(C)(=O)c1ccc(S(=O)(=O)Nc2ccccc2N2CCC(c3ccc(F)cc3F)CC2)cc1 [Compound A-176, N-{2-[4-(2,4-difluorophenyl)piperidin-1-yl]phenyl}-4-(dimethylphosphoryl)benzene-1-sulfonamide] here?
**A.** The AC50 was no less than 10 µM.

**Q.** CP(C)(=O)c1ccc(S(=O)(=O)Nc2ccccc2N2CCC(c3c(F)cccc3F)CC2)cc1 [Compound A-177, N-{2-[4-(2,6-difluorophenyl)piperidin-1-yl]phenyl}-4-(dimethylphosphoryl)benzene-1-sulfonamide] was tested. Which AC50 did it give?
**A.** Its AC50 is no less than 10 µM.

**Q.** Which AC50 does the source give for O=S(=O)(Nc1ccccc1N1CCN(c2ncc(Cl)cc2F)CC1)c1ccc(S(=O)(=O)C(F)(F)F)cc1 [Compound A-178, N-{2-[4-(5-chloro-3-fluoropyridin-2-yl)piperazin-1-yl]phenyl}-4-trifluoromethanesulfonylbenzene-1-sulfonamide] here?
**A.** Its AC50 is no more than 2 µM.

**Q.** How did the AC50 turn out when CN(C)S(=O)(=O)c1ccc(S(=O)(=O)Nc2ccccc2N2CCN(C34CC(C3)C4)CC2)cc1 [Compound A-179, N4-[2-(4-{bicyclo[1.1.1]pentan-1-yl}piperazin-1-yl)phenyl]-N1,N1-dimethylbenzene-1,4-disulfonamide] was run?
**A.** The AC50 was no more than 2 µM.

**Q.** Which AC50 does the source give for COc1ccc(S(=O)(=O)Nc2ccccc2-c2ncc(F)cc2F)cc1 [Compound A-180, N-(2-(3,5-difluoropyridin-2-yl)phenyl)-4-methoxybenzenesulfonamide] here?
**A.** The AC50 was 8.01 to 9.99 µM.

**Q.** With CN(C)S(=O)(=O)c1ccc([S+]([O-])c2ccccc2N2CCC(c3ccc(Cl)cc3F)CC2)cc1 (stereo not shown) [Compound A-181, 4-((2-(4-(4-chloro-2-fluorophenyl)piperidin-1-yl)phenyl)sulfinyl)-N,N-dimethylbenzenesulfonamide] as the compound, how does the AC50 read?
**A.** Its AC50 is 2.01 to 8 µM.

**Q.** For CN(C)S(=O)(=O)c1ccc(S(=O)(=O)Nc2ccccc2N2CCC(C)(c3ccccc3Cl)CC2)cc1 [Compound A-183, N4-{2-[4-(2-chlorophenyl)-4-methylpiperidin-1-yl]phenyl}-N1,N1-dimethylbenzene-1,4-disulfonamide], which AC50 is on record?
**A.** Its AC50 is no more than 2 µM.

**Q.** Which AC50 does the source give for CN(C)S(=O)(=O)c1ccc(S(=O)(=O)Nc2ccccc2N2CCC(C)(c3ccc(Cl)cc3)CC2)cc1 [Compound A-184, N4-{2-[4-(4-chlorophenyl)-4-methylpiperidin-1-yl]phenyl}-N1,N1-dimethylbenzene-1,4-disulfonamide] here?
**A.** Its AC50 is no more than 2 µM.

**Q.** How did the AC50 turn out when O=S(=O)(Nc1ccccc1N1CCC(c2ccc(F)cc2F)CC1)c1ccc(S(=O)(=O)C(F)F)cc1 [Compound A-185, 4-difluoromethanesulfonyl-N-{2-[4-(2,4-difluorophenyl)piperidin-1-yl]phenyl}benzene-1-sulfonamide] was run?
**A.** Its AC50 is no more than 2 µM.

**Q.** Which AC50 does the source give for COc1ccc(S(=O)(=O)Nc2ccccc2Oc2ccc(F)cc2F)cc1 [Compound A-186, N-(2-(2,4-difluorophenoxy)phenyl)-4-methoxybenzenesulfonamide] here?
**A.** The AC50 was no less than 10 µM.

**Q.** How did the AC50 turn out when COc1ccc(S(=O)(=O)Nc2ccccc2OCc2ccc(F)cc2F)cc1 [Compound A-187, N-(2-((2,4-difluorobenzyl)oxy)phenyl)-4-methoxybenzenesulfonamide] was run?
**A.** The AC50 was no less than 10 µM.

**Q.** For COc1ccc(S(=O)(=O)Nc2ccccc2N2CC(N(C)c3ccc(F)cc3F)C2)cc1 [Compound A-188, N-(2-{3-[(2,4-difluorophenyl)(methyl)amino]azetidin-1-yl}phenyl)-4-methoxybenzene-1-sulfonamide], which AC50 is on record?
**A.** Its AC50 is no less than 10 µM.
